Measurements from paper PMC4291147, “Molecular Basis of Histone Tail Recognition by Human TIP5 PHD Finger and Bromodomain of the Chromatin Remodeling Complex NoRC” (Structure(London, England:1993), 2015).
Where no end group is shown, it is not given here.

Columns and labels:
[1] = molecular target: T1, TIP5 BRD (Homo sapiens, UniProt Q9UIF9); assay: ITC, histone peptide binding to TIP5 BRD; details: 20 mM HEPES (pH 7.5–8), 150 mM NaCl, 0.5 mM TCEP, 293 or 298 K
T1 construct: (residues 1797- 1899 for TIP5, residues); hexa-histidine (pNIC28-Bsa4, TEV site) (N, cleaved yes); made in house; host or cells: E. coli BL21(DE3) Rosetta or BL21(DE3)-R3-pRARE2
T1 sequence (Q9UIF9 1797-1899): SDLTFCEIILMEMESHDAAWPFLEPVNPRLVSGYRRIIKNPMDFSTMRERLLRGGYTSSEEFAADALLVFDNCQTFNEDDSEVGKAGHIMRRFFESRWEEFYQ
Experimental: All calorimetric experiments were performed on an ITC200 or VP-ITC microcalorimeters (MicroCal). […] The data were analyzed with the MicroCal ORIGIN software package using, in most cases, a single binding site model. The first data point was excluded from the analysis. […]
(§1) The cDNAs encoding tandem PHD zinc finger and bromodomain of human TIP5 […]
GeneBank: Q9UIF8) were synthesized by GenScript with codons optimized f or E. coli. expression and were subcloned into a modif ied pET15 vector using NdeI/XhoI sites f or expression as recombinant proteins with a His6 tag fused with small ubiquitin like modifier (SUMO)-1 fusion tag at the N terminus. cDNA sequences were used as a […]
Single PHD zinc f ingers were introduced into the same modif ied SUMO tagged plasmid whereas single bromodomains were f urther subcloned into pET28 derived expression vectors, pNIC28- Bsa4 using ligation independent […]
Protein Expression and Purification […]
(§2) competent BL21(DE3) Rosetta cells (Invitrogen) or into BL21 (DE3)-R3-pRARE2 cells (phage- resistant derivative with a pRARE plasmid encoding rare codon tRNAs). Cells were grown at 37 °C in Terrific Broth (Sigma) from overnight cultures until A600 reached between 0.6- 0.8, then the media was cooled and 0.2 mM isopropyl-β-Dthiogalactopyranoside (IPTG) was added to induce the protein expression at 20 °C f or 16 hours. An extra 0.1 mM ZnCl 2 was added in the protein expression to those targets that contained a PHD zinc f inger.
Different purification procedures have been optimized for each target protein. In common, E. coli overexpressed cells were lysed using an EmulsiFlex-C5 hig h-pr es s ure homogenizer (Avestin - Mannheim, Germany) or high -pressure cell disruption (Constant Systems Limited) in loading buffer A from the nickel affinity column (HisTrap Chelating FF 5ml) in the presence of Protease Inhibitor Cocktail EDTA-free (Roche). […]
on a Beckman Coulter Avanti J-20 XP centrif uge). After centrif ugation, the supernatant was loaded onto the nickel column and eluted in an imidazole linear gradient. The

[2] = molecular target: T2, BAZ2B BRD (Homo sapiens, UniProt Q9UIF8); assay: ITC, histone peptide binding to BAZ2B BRD; details: 20 mM HEPES (pH 7.5–8), 150 mM NaCl, 0.5 mM TCEP, 293 or 298 K
T2 construct: 2054- 2168 f or BAZ2B) regions; hexa-histidine (pNIC28-Bsa4, TEV site) (N, cleaved yes); made in house; host or cells: E. coli BL21(DE3) Rosetta or BL21(DE3)-R3-pRARE2
T2 sequence (Q9UIF8 2054-2168): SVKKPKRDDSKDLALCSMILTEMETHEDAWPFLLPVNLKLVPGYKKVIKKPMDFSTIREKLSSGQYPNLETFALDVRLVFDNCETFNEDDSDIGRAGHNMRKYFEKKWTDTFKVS
Experimental: (§3) All calorimetric experiments were performed on an ITC200 or VP-ITC microcalorimeters (MicroCal). Protein solutions were buffer exchanged by gel filtration into buffer (20 mM HEPES [pH 8], 150 mM NaCl, 0.5 mM Tris [2-carboxyethyl]phosphine [TCEP]), and lyophilized histone peptides were dissolved in the same buffer. All measurements were carried out at 293 or 298 K. Protein solutions (60–120 μM) in the calorimetric cell were titrated with the peptide solutions (800–1,500 μM) in the syringe. The data were analyzed with the MicroCal ORIGIN software package using, in most cases, a single binding site model. The first data point was excluded from the analysis. […]
as §1
GeneBank: Q9UIF8) were synthesized by GenScript with codons optimized f or E. coli. expression and were subcloned into a modif ied pET15 vector using NdeI/XhoI sites f or expression as recombinant proteins with a His6 tag fused with small ubiquitin like modifier (SUMO)-1 fusion tag at the N terminus. cDNA sequences were used as a template to amplify single PHD zinc fingers (residues 1673- 1728 for TIP5; residues 2054- 2168 f or BAZ2B) regions. Single PHD zinc f ingers were introduced into the same modif ied SUMO tagged plasmid whereas single bromodomains were f urther subcloned into pET28 derived expression vectors, pNIC28- Bsa4 using ligation independent cloning (Stols et al., 2002).
Protein Expression and Purification
as §2, with “Best expression constructs encoding all target proteins were transformed into E. coli competent” for “competent”
Different purification procedures have been optimized for each target protein. In common, E. coli overexpressed cells were lysed using an EmulsiFlex-C5 hig h-pr es s ure homogenizer (Avestin - Mannheim, Germany) or high -pressure cell disruption (Constant Systems Limited) in loading buffer A from the nickel affinity column (HisTrap Chelating FF 5ml) in the presence of Protease Inhibitor Cocktail EDTA-free (Roche).
Lysates were cleared by centrif ugation (14,000 x g f or 45m in at 4 °C, JLA 16.250 rotor, on a Beckman Coulter Avanti J-20 XP centrif uge). After centrif ugation, the supernatant was loaded onto the nickel column and eluted in an imidazole linear gradient. The

[3] = molecular target: T3, BAZ2B PHD (Homo sapiens, UniProt Q9UIF8); assay: ITC, histone peptide binding to BAZ2B PHD; details: 20 mM HEPES (pH 7.5–8), 150 mM NaCl, 0.5 mM TCEP, 293 or 298 K, protein 60–120 μM in cell, peptide 800–1,500 μM in syringe, ± error of nonlinear least-squares fit
T3 construct: 1928- 1983 for BAZ2B) and bromodomains; His6-SUMO (N, cleaved yes); made in house; host or cells: E. coli BL21(DE3) Rosetta or BL21(DE3)-R3-pRARE2
T3 sequence (Q9UIF8 1928-1983): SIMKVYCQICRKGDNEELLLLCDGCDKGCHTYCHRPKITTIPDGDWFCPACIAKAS
Experimental: as §3, §1
(§4) GeneBank: Q9UIF8) were synthesized by GenScript with codons optimized f or E. coli. expression and were subcloned into a modif ied pET15 vector using NdeI/XhoI sites f or expression as recombinant proteins with a His6 tag fused with small ubiquitin like modifier (SUMO)-1 fusion tag at the N terminus. cDNA sequences were used as a template to amplify single PHD zinc fingers (residues 1673- 1728 for TIP5; residues 2054- 2168 f or BAZ2B) regions. […]

[4] = molecular target: T4, TIP5 PHD (Homo sapiens, UniProt Q9UIF9); assay: ITC, histone peptide binding to TIP5 PHD; details: 20 mM HEPES (pH 7.5–8), 150 mM NaCl, 0.5 mM TCEP, 293 or 298 K, protein 60–120 μM in cell, peptide 800–1,500 μM in syringe, ± error of nonlinear least-squares fit
T4 construct: single PHD zinc fingers (residues 1673- 1728 for TIP5); residues; His6-SUMO (N, cleaved yes); made in house; host or cells: E. coli BL21(DE3) Rosetta or BL21(DE3)-R3-pRARE2
T4 sequence (Q9UIF9 1673-1728): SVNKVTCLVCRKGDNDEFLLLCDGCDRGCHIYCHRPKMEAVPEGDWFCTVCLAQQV
Experimental: as §3, §1, §4

[5] = test system: BAZ2 BRD; set-up: method as in Structural Genomics Consortium [SGC] website; details: ref Structural Genomics Consortium [SGC] website; cited from earlier work
[6] = molecular target: T5, TIP5 PHD-BRD (Homo sapiens, UniProt Q9UIF9); assay: ITC, histone peptide binding to tandem TIP5 PHD-BRD; details: 20 mM HEPES (pH 7.5–8), 150 mM NaCl, 0.5 mM TCEP, 293 or 298 K, protein 60–120 μM in cell, peptide 800–1,500 μM in syringe, ± error of nonlinear least-squares fit
T5 construct: (residues 1673– 1901, UniProt: Q9UIF9); His6-SUMO (N, cleaved yes); made in house; host or cells: E. coli BL21(DE3) Rosetta or BL21(DE3)-R3-pRARE2
T5 sequence (Q9UIF9 1673-1901): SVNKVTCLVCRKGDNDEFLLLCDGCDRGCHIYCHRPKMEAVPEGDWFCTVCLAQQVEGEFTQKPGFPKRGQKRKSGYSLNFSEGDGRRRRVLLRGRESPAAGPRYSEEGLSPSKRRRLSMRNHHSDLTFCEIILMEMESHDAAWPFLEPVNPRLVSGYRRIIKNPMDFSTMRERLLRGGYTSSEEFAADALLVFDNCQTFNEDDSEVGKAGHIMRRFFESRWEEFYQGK
Experimental: as §3, §1, §4

[7] = molecular target: T6, BAZ2B PHD-BRD (Homo sapiens, UniProt Q9UIF8); assay: ITC, histone peptide binding to tandem BAZ2B PHD-BRD; details: 20 mM HEPES (pH 7.5–8), 150 mM NaCl, 0.5 mM TCEP, 293 or 298 K, protein 60–120 μM in cell, peptide 800–1,500 μM in syringe, ± error of nonlinear least-squares fit
T6 construct: human BAZ2B (residues 1928-2168,; His6-SUMO (N, cleaved yes); made in house; host or cells: E. coli BL21(DE3) Rosetta or BL21(DE3)-R3-pRARE2
T6 sequence (Q9UIF8 1928-2168): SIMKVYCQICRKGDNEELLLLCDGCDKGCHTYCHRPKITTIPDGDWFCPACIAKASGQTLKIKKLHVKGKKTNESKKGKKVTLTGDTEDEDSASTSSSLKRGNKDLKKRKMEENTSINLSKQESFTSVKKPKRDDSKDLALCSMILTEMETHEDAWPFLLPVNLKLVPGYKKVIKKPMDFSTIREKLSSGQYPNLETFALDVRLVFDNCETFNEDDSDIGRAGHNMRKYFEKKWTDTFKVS
Experimental: as §3, §1, §4

[8] = ITC, protein 60–120 μM in cell, peptide 800–1,500 μM in syringe, ± error of nonlinear least-squares fit

## GAK(Ac)RHRK(Ac)VL [H4(14–22)K16acK20ac]
[1]; [8]
  Kd: 26.1 ± 0.37 µM
[2]; [8]
  Kd: 42.41 ± 0.42 µM

## GGK(Ac)GLGK(Ac)G [H4(6–13)K8acK12ac]
[1]; [8]
  Kd: 63.25 ± 0.11 µM

## C[C@H](N)C(=O)N[C@@H](CCCNC(=N)N)C(=O)N[C@H](C(=O)N[C@@H](CCCCN)C(=O)N[C@@H](CCC(N)=O)C(=O)N[C@H](C(=O)N[C@@H](C)C(=O)N[C@@H](CCCNC(=N)N)C(=O)N[C@@H](CCCCN)C(=O)O)[C@@H](C)O)[C@@H](C)O [H3(1–9)]
[3]
  Kd: 3.07 ± 0.71 µM
[4]
  Kd: 2.51 ± 0.63 µM

## GAK(Ac)RHRKVL [H4(14–22)K16ac]
[1]; ITC stoichiometry, ± fit error
  N: 1.186 ± 0.015
[1]; ITC
  TΔS: -6.533 kcal/mol
  ΔG: -6.207 kcal/mol
[1]; ITC, listed as H4(14-22)K16ac
  TΔS: -6.533 kcal/mol
  ΔG: -6.206 kcal/mol
[1]; ITC, ± fit error
  ΔH: -12.740 ± 0.226 kcal/mol
[1]; ITC, ± fit error, listed as H4(14-22)K16ac
  ΔH: -12.740 ± 0.226 kcal/mol
[2]; ITC stoichiometry, ± fit error
  N: 1.062 ± 0.064
[2]; ITC
  TΔS: 2.989 kcal/mol
  ΔG: -5.809 kcal/mol
[2]; ITC, ± fit error
  ΔH: -2.820 ± 0.223 kcal/mol

## CNCCCC[C@H](NC(=O)[C@@H](NC(=O)[C@H](CCCNC(=N)N)NC(=O)[C@H](C)N)[C@@H](C)O)C(=O)N[C@@H](CCC(N)=O)C(=O)N[C@H](C(=O)N[C@@H](C)C(=O)N[C@@H](CCCNC(=N)N)C(=O)N[C@@H](CCCCN)C(=O)O)[C@@H](C)O [H3(1–9)K4me]
[3]
  Kd: 3.98 ± 0.61 µM
[4]
  Kd: 2.5 ± 0.43 µM

## Lys-Ser-Thr-Gly-Gly-Kac-Ala-Pro-Ala-Gln [H3(9-19)K14ac [R17A], mutated H3K14ac peptide, R17 to A17]
[2]; [8]
  KD: no binding

## CCCOc1ccn2c(C(C)=O)cc(-c3ccccc3S(C)(=O)=O)c2c1 [GSK2801]
[5]
  potency/selectivity in words: selective nanomolar

## Gly-Ala-Kac-Arg-His-Ala-Lys-Val-Leu [H4(14-22)K16ac [R19A], mutated H4K16ac peptide, R19 to A19]
[1]; [8]
  KD: no binding

## CC(=O)NCCCC[C@H](NC(=O)CNC(=O)CNC(=O)[C@@H](NC(=O)[C@H](CO)NC(=O)[C@H](CCCCN)NC(=O)[C@H](CCCNC(=N)N)NC(=O)[C@H](C)NC(=O)[C@@H](NC(=O)[C@H](CCC(N)=O)NC(=O)[C@H](CCCCN)NC(=O)[C@@H](NC(=O)[C@H](CCCNC(=N)N)NC(=O)[C@H](C)N)[C@@H](C)O)[C@@H](C)O)[C@@H](C)O)C(=O)N[C@@H](C)C(=O)N1CCC[C@H]1C(=O)N[C@@H](CCCNC(=N)N)C(=O)N[C@@H](CCCCN)C(=O)O [H3(1–18)K14ac]
[6]
  Kd: 1.87 ± 0.29 µM
[7]
  Kd: 2.33 ± 0.19 µM
